Several values for one entry are separate records, joined by “and”; a condition that tells them apart may be missing. Equal entries are not always repeated. Where two headings read alike, the source gives them in different places.
How the values were obtained:
[1] = Tissue distribution after oral administration; assay type: in vivo, Wistar rats; conditions: oral 180 mg/kg
Method: Five rats for each duration, 2, 24, 48 and 96 h post-dose, were sacrificed by decapitation after administration of Compound 1. The whole brain, heart, liver, spleen, lung, kidney, uterus, testis, ovary, epididymis, stomach, intestine, pancreas, thymus, fat, and skeletal muscle were rapidly dissected and harvested. All tissues and organs were weighed on an analytical balance and frozen at −20°C until analysis.
The tissue samples (except for fat and pancreas) were aliquots into 0.1 g and dipped in 3 mL concentrated HNO3 in test tubes.
(§1) Feces, fat and pancreas samples were aliquots into 0.1 g and dipped in 1 mL concentrated H2SO4 in test tubes. […] 3 mL concentrated HNO3was added at 120°C for 12 h until thorough dissolution.
(§2) Concentrations of Compound 1 were determined by atomic spectrometry. Samples were analyzed directly by ICP-MS. Polyoxometalate concentrations were estimated directly from measured tungsten concentrations.

rat plasma protein = assay: Plasma protein binding by equilibrium dialysis; assay type: in vitro ADME; conditions: for Protein binding rate, Mean: six parallel samples
Method: Various amounts of Compound 1 were added to pooled male rat serum to yield concentrations of 9, 18 and 36 mg/mL. The dialysis membrane was Spectrapor II (Beijing Dingguo Changsheng Biotechnology Co. Ltd, China) with a molecular weight cutoff of 12,000 to 14,000. […] Dialyzed serum and buffer volumes were collected and frozen at −20°C until analysis, and binding data were corrected for fluid shifts that occurred during dialysis. Experiments were done in six parallel samples. The following formula was used to calculate plasma protein binding rate of Compound 1 under different concentrations: [drawing 1]
Cplasma: concentration of Compound 1;
Cbuffer: concentration of Compound 1 in buffer
(§3) The urine, bile, postdialysis serum and buffer samples were aliquots into 0.1 mL, treated in the same way as plasma samples.

[2] = rat, in vivo; for AUC0–96 (area under the curve up to 96 h) / AUC0–∞ (area under the total concentration-time curve) / CL (systemic clearance) / Cmax (maximum concentration) / MRT (mean residence time) / Tmax (time of peak concentration) / Vd (steady-state volume of distribution) / ke (elimination rate constant) / t1/2 (half-life): po
[3] = parameters: method as in earlier work; conditions: cited from earlier work
[4] = Bile excretion after oral administration (bile duct cannulation); assay type: in vivo, Rats; conditions: oral 180 mg/kg, % of the drug tested
Method: Bile excretion: Rats (n = 6, male and female in equal) were anesthetized with diethyl ether, and bile duct were cannulated with a polyethylene tube. After recovery from anesthesia, rates were orally administered Compound 1 at a dose of 180 mg/kg BW. The bile samples were collected during 0–1, 1–2, 2–4, 4–8, 8–12, 12–24 and 24–48 h by bile duct cannulation. The bile volume was measured, and samples were frozen at −20°C until analysis.
as §3, §2

[5] = rat, in vivo, iv, 180 mg/kg
[6] = Urine and feces excretion after oral administration; assay type: in vivo, Wistar rats; conditions: oral 180 mg/kg
Method: Rats were placed in metabolism cages during the experiment to facilitate urine and feces collection. Urine and feces were collected during 0–1 h, 1–2, 2–4, 4–8, 8–12, 12–24, 24–48 and […]. Urine volume and feces weight were measured, and samples were frozen at −20°C until analysis.
as §3, §1, §2

hepatitis B virus = system: hepatitis B virus; parameters: method as in PMID 22264474; conditions: cited from earlier work

Q: Which “content in kidney and liver relative to the other tissues” value [1] does the source give for Cs2K4Na[SiW9Nb3O40].H2O [Compound 1] here?
A: 10–70 times

Q: And the “deposition in the brain” value [1]?
A: Less deposition

Q: What about the “tissue with highest deposition” value ([1]; 16 tissues) of the same substance?
A: kidney, followed by the stomach, intestine and liver

Q: What about the “content in tissues at 96 h relative to peak content” value ([1]; 96 h) of the same substance?
A: less than 10%

Q: And the “extent of binding to rat plasma protein” value (rat plasma protein; 36 mg/ml)?
A: moderately bound

Q: What about the “extent of binding to rat plasma protein” value (rat plasma protein; 9–18 mg/ml) of the same substance?
A: highly bound

Q: And the “Protein binding rate (single samples)” value (rat plasma protein; added concentration 9 mg/mL, rat serum, dialysis 48 h, 37°C, pH 7.4)?
A: 47.79% and 54.71% and 73.72% and 62.68% and 67.76% and 66.13%

Q: What about the “Protein binding rate, Mean” value (rat plasma protein; added concentration 9 mg/mL, dialysis 48 h) of the same substance?
A: 62.13%

Q: What about the “Protein binding rate, Mean” value (rat plasma protein; added concentration 18 mg/mL, dialysis 48 h) of the same substance?
A: 71.20%

Q: And the “Protein binding rate, Mean” value (rat plasma protein; added concentration 36 mg/mL, dialysis 48 h)?
A: 49.00%

Q: And the Tmax range [2]?
A: 6 to 180 min

Q: What about the half-life range [2] of the same substance?
A: 20 to 30 h

Q: And the absolute bioavailability ([2]; 180 mg/kg)?
A: 14.67%

Q: What about the “AUC0–96 (area under the curve up to 96 h)” value ([2]; 45 mg/kg) of the same substance?
A: 150.9 ± 87.15 µg·h/mL

Q: And the “AUC0–∞ (area under the total concentration-time curve)” value (“AUC0–∞” for short) ([2]; 45 mg/kg)?
A: 165.1 ± 94.98 µg·h/mL

Q: What about the “CL (systemic clearance)” value ([2]; 45 mg/kg) of the same substance?
A: 86.96 ± 42.45 mL/h

Q: What about the “Cmax (maximum concentration)” value ([2]; 45 mg/kg) of the same substance?
A: 11130 ± 8370 ng/mL

Q: And the “MRT (mean residence time)” value ([2]; 45 mg/kg)?
A: 36.45±4.495 H

Q: What about the “Tmax (time of peak concentration)” value ([2]; 45 mg/kg) of the same substance?
A: 2.000±0.632 H

Q: And the “Vd (steady-state volume of distribution)” value ([2]; 45 mg/kg)?
A: 3437 ± 1593 mL

Q: And the “ke (elimination rate constant)” value ([2]; 45 mg/kg)?
A: 0.025 ± 0.002 h⁻¹

Q: And the “t1/2 (half-life)” value ([2]; 45 mg/kg)?
A: 27.91±2.606 H

Q: What about the “AUC0–96 (area under the curve up to 96 h)” value ([2]; 180 mg/kg) of the same substance?
A: 373.9 ± 112.7 µg·h/mL

Q: What about the “AUC0–∞” value ([2]; 180 mg/kg) of the same substance?
A: 410.1 ± 128.5 µg·h/mL

Q: And the “CL (systemic clearance)” value ([2]; 180 mg/kg)?
A: 117.1 ± 29.49 mL/h

Q: What about the “Cmax (maximum concentration)” value ([2]; 180 mg/kg) of the same substance?
A: 30850 ± 14250 ng/mL

Q: What about the “MRT (mean residence time)” value ([2]; 180 mg/kg) of the same substance?
A: 35.42±5.940 H

Q: And the “Tmax (time of peak concentration)” value ([2]; 180 mg/kg)?
A: 1.833±0.753 H

Q: What about the “Vd (steady-state volume of distribution)” value ([2]; 180 mg/kg) of the same substance?
A: 4620 ± 829.9 mL

Q: What about the “ke (elimination rate constant)” value ([2]; 180 mg/kg) of the same substance?
A: 0.025 ± 0.003 h⁻¹

Q: And the “t1/2 (half-life)” value ([2]; 180 mg/kg)?
A: 27.88±3.221 H

Q: What about the “AUC0–96 (area under the curve up to 96 h)” value ([2]; 720 mg/kg) of the same substance?
A: 1216 ± 402.2 µg·h/mL

Q: What about the “AUC0–∞” value ([2]; 720 mg/kg) of the same substance?
A: 1316 ± 449.7 µg·h/mL

Q: And the “CL (systemic clearance)” value ([2]; 720 mg/kg)?
A: 153.7 ± 62.35 mL/h

Q: What about the “Cmax (maximum concentration)” value ([2]; 720 mg/kg) of the same substance?
A: 49290 ± 9939 ng/mL

Q: And the “MRT (mean residence time)” value ([2]; 720 mg/kg)?
A: 37.57±4.676 H

Q: What about the “Tmax (time of peak concentration)” value ([2]; 720 mg/kg) of the same substance?
A: 2.167±0.753 H

Q: And the “Vd (steady-state volume of distribution)” value ([2]; 720 mg/kg)?
A: 5583 ± 2416 mL

Q: And the “ke (elimination rate constant)” value ([2]; 720 mg/kg)?
A: 0.028 ± 0.003 h⁻¹

Q: And the “t1/2 (half-life)” value ([2]; 720 mg/kg)?
A: 24.92±2.178 H

Q: And the reproductive toxicity [3]?
A: no obvious reproductive toxicity

Q: And the “accumulative excretion rate, bile” value [4]?
A: about 0.42%

Q: What about the “AUC0–96 (area under the curve up to 96 h)” value [5] of the same substance?
A: 2549 ± 327.3 µg·h/mL

Q: And the “AUC0–∞” value [5]?
A: 2965 ± 342.8 µg·h/mL

Q: What about the “CL (systemic clearance)” value [5] of the same substance?
A: 15.34 ± 1.695 mL/h

Q: What about the “Cmax (maximum concentration)” value [5] of the same substance?
A: 235400 ± 66910 ng/mL

Q: What about the “MRT (mean residence time)” value [5] of the same substance?
A: 47.05 ± 3.529 h

Q: What about the “Tmax (time of peak concentration)” value [5] of the same substance?
A: 8.34 ± 5.16 min

Q: And the “Vd (steady-state volume of distribution)” value [5]?
A: 679.7 ± 114.7 mL

Q: And the “compartment model fitted by the pharmacokinetic behavior” value [5]?
A: two compartment model

Q: And the “ke (elimination rate constant)” value [5]?
A: 0.023 ± 0.004 h⁻¹

Q: What about the “t1/2 (half-life)” value [5] of the same substance?
A: 30.76 ± 4.658 h

Q: And the “total excreted, % of the total amount administered” value ([6]; till 48 h)?
A: about 30.84%

Q: What about the “total excreted, % of the total amount administered” value ([6]; till 72 h) of the same substance?
A: about 31.1%

Q: And the “secretion of HBV antigens and HBV DNA” value (hepatitis B virus; HepG2.2.15 cells)?
A: effectively suppressed

Q: What about the “activity against HBV” value (hepatitis B virus; HepG 2.2.15) of the same substance?
A: high activity against HBV

Q: And the toxicity (hepatitis B virus; HepG 2.2.15)?
A: low toxicity
